According to patent US11981953B2, “Method to screen compounds for antifungal activity and pharmaceutical compositions and methods to treat fungal diseases by inhibiting spore germination” (WISCONSIN ALUMNI RESEARCH FOUNDATION, priority 2018, dated 2024):
≈ marks a conversion by molar mass, not a printed value. Counter-ions that a name gives are not always drawn. Like-named read-outs stand apart in the source and are kept apart here.

Assays:
Format in all cases: cell-based
[1] = system: Cryptococcus neoformans yeast replication; settings: signal relative to negative control
Description: (§1) To identify inhibitors of Cryptococcus neoformans spore germination, a high throughput screen was developed that utilizes a nanoluciferase construct to monitor whether spores germinate in the presence of inhibitor. Briefly a protein luciferase construct was created resulting in a low luciferase signal for non-germinated spores and a high signal from germinated and replicating cells. The screen was coupled with OD600 readings to monitor the ability of compounds to inhibit yeast replication. The examples focused on FDA-approved drugs, as these drugs have the potential of being repurposed into antifungal therapeutics. To determine whether any FDA-approved drugs were able to inhibit Cryptococcus neoformans spore germination and yeast replication, the aforementioned high throughput screen was performed on the L1300 Selleck FDA-Approved Drug Library containing an array of 1108 compounds. This library of compounds is available commercially from Selleck Chemicals, 14408 W Sylvanfield Drive, Houston, Tex. 77014, USA.
(§2) The screening was successful at identifying known antifungal drugs as inhibitors of yeast replication as indicated by an OD600 signal of less than 75% of the negative control (Table 2). For the purpose of these examples, antifungal drugs were defined as any FDA-approved drug used in the treatment of fungal infections. Of these 23 known antifungal drugs, only six (6) were identified as inhibitors of spore germination, indicated by a luciferase signal of less than 30% of the negative control.

[2] = system: Cryptococcus neoformans spore germination; experiment: High throughput nanoluciferase screen of spore germination (L1300 Selleck FDA-Approved Drug Library); settings: signal relative to negative control
Description: as §1, §2

[3] = system: Cryptococcus neoformans (H99); experiment: MIC/MFC experiments (EUCAST based), H99; settings: 48 h; for MFC: Cryptococcus neoformans
Procedure: (§3) All minimum inhibitory concentration (MIC) experiments were based on EUCAST methodology. […] After 6-hour incubation, yeast cells were washed in 1×PBS and quantified using a hemocytometer. […] Cryptococcus neoformans cells were incubated for 2 days at 30° C. while Candida albicans strains were incubated for 2 days at 35° C. OD600 readings were used to assess the MIC values for each drug. To determine minimum fungicidal concentrations (MFC) values, 3 μL per well were plated on YPD and allowed to grow for 2 days.

[4] = system: Cryptococcus neoformans (JEC21); experiment: MIC/MFC experiments (EUCAST based), JEC21; settings: 48 h; for MFC: Cryptococcus neoformans
Procedure: as §3

[5] = system: Aspergillus Fumigatus (AF293); experiment: Aspergillus fumigatus MIC on conidia; settings: for MIC: Aspergillus fumigatus; for Ability to inhibit Aspergillus fumigatus: testing performed on conidia
Procedure: Conidia at a final concentration of 2×10^4 cells were incubated in RPMI, 0.33 M MOPS, and 2% glucose at pH 7 at varying concentrations of inhibitors, with a final volume of 200 μL.

[6] = system: Candida albicans (SC5314); experiment: MIC/MFC experiments (EUCAST based), Candida albicans; settings: SC5314, 48 h
Procedure: as §3

[7] = system: Cryptococcus neoformans spores (JEC20 x JEC21); experiment: Quantitative germination assay (microfluidic devices, cell size and shape); settings: for Inhibition of spore germination: 16 hours; for Germicidal: plated on YPD after the 16-hour experiment; for Inhibition of spore germination, antifungal drugs: concentration not given, bifonazole and econazole nitrate tested outside the microfluidic device, imaged at 0 and 16 hours; for Spore escape from inhibition (words): yeast population increase = escape
Procedure: All germination assays are based on Barkal et al., 2016. Briefly, microfluidic devices were loaded with 1×10^5 spores, and at 0 hours, SD media with drug of interest, were added to the sample. Spores were allowed to germinated at 30° C. in a humidified chamber and cells were monitored every two (2) hours for 16 hours. Each assay was performed in two (2) individual wells with three (3) field of views acquired from each well. All images were analyzed as previously described based on cell shape and size. Population ratio of spores, intermediate, and yeast cells were determined. Error bars in plots are based on variation between all fields of view acquired. […] After the 16-hour experiment, samples were plated on YPD and allowed to grow at 30° C. to determine if drugs were completely germicidal or not based on lack of growth. If assays were unable to be performed in microfluidic devices, the […] spores were incubated in identical conditions outside of PDMS devices and only loaded into devices for image acquisition.

[8] = Table 3, other FDA-approved drugs
[9] = Table 5, yeast, 2 days at 30° C., OD600, read-out: MIC
[10] = Table 5, plated on YPD, 2 days, read-out: MFC
[11] = Table 5, conidia, lowest concentration with complete absence of germ tubes or hyphae, read-out: MIC
[12] = Table 5, 2 days at 35° C., OD600, read-out: MIC
[13] = Table 2, antifungal drugs, less than 75% = inhibitor of yeast replication
[14] = Table 2, antifungal drugs, less than 30% = inhibitor of germination
[15] = Table 4, yeast, 2 days at 30° C., OD600, read-out: MIC
[16] = Table 4, plated on YPD, 2 days, read-out: MFC
[17] = Table 4, conidia, lowest concentration with complete absence of germ tubes or hyphae, read-out: MIC
[18] = Table 4, 2 days at 35° C., OD600, read-out: MIC

Structure (SMILES) | Replication Percent OD600 [1, 8] [%] | Germination Percent Luciferase Signal [2, 8] [%] | MIC [3, 9] [µg/mL] | MFC [3, 10] [µg/mL] | MIC [4, 9] [µg/mL] | MFC [4, 10] [µg/mL] | MIC [5, 11] [µg/mL] | Ability to inhibit Aspergillus fumigatus [5] | MIC [6, 12] [µg/mL] | MFC [6, 10] [µg/mL] | Inhibition of spore germination ([7]; 25 μg/mL) | Germicidal ([7]; 25 μg/mL) | MIC [3, 15] [µg/mL] | MFC [3, 16] [µg/mL] | MIC [4, 15] [µg/mL] | MFC [4, 16] [µg/mL] | MIC [5, 17] [µg/mL] | MIC [6, 18] [µg/mL] | MFC [6, 16] [µg/mL] | Inhibition of spore germination, antifungal drugs [7] | other results
CCCCC(CC)CNC(=N)NC(=N)NCCCCCCNC(=N)NC(=N)NCC(CC)CCCC (stereo not shown) [Alexidine HCl] | 29.6 | 4.6 | < 0.78 | < 0.78 | < 0.78 | < 0.78 | < 0.78 | extremely potent | < 0.78 | < 0.78 | completely inhibit spore germination | fully germicidal | – | – | – | – | – | – | – | – | –
c1ccc(-c2ccc(C(c3ccccc3)n3ccnc3)cc2)cc1 (stereo not shown) [Bifonazole] | – | – | – | – | – | – | – | unable to inhibit | – | – | – | – | 6.25 (≈ 20.1 µM) | > 100 | 6.25 (≈ 20.1 µM) | 6.25 (≈ 20.1 µM) | > 100 | > 100 | > 100 | able to inhibit spore germination effectively | Replication Percent OD600 [1, 13]: 33.4%; Germination Percent Luciferase Signal [2, 14]: 13.6%; Spore escape from inhibition (words) [7]: spore escape apparent
CCN(CC)C(=S)SSC(=S)N(CC)CC [Disulfiram] | 65.6 | 22.7 | – | – | – | – | – | – | – | – | – | – | – | – | – | – | – | – | – | – | MIC [3]: 6.25 µg/mL (≈ 21.1 µM); MFC [3]: 6.25 µg/mL (≈ 21.1 µM); MIC [4]: 3.13 µg/mL (≈ 10.6 µM); MFC [4]: 3.13 µg/mL (≈ 10.6 µM); MIC [5]: 25 µg/mL (≈ 84.3 µM); MFC [6]: 12.5 µg/mL (≈ 42.2 µM); MIC [6]: 6.25 µg/mL (≈ 21.1 µM); Stall in germination overall ([7]; 25 μg/mL): ~2 h
Clc1ccc(COC(Cn2ccnc2)c2ccc(Cl)cc2Cl)cc1 (stereo not shown) [Econazole nitrate] | – | – | – | – | – | – | – | able to inhibit its growth | – | – | – | – | < 0.78 | 6.25 | < 0.78 | 6.25 | 3.13 | 6.25 | 12.5 | able to inhibit spore germination effectively | Replication Percent OD600 [1, 13]: 33.1%; Germination Percent Luciferase Signal [2, 14]: 16.1%
O=C(Nc1ccc([N+](=O)[O-])cc1Cl)c1cc(Cl)ccc1O [Niclosamide] | 43.4 | 7.8 | 1.56 (≈ 4.77 µM) | > 100 | < 0.78 | 1.56 (≈ 4.77 µM) | > 100 | – | > 100 | > 100 | completely inhibit germination | not fully germicidal | – | – | – | – | – | – | – | – | –
CCCCCCCCOc1ccccc1C(=O)Nc1ccc(C(=O)OCC[N+](C)(CC)CC)cc1 [Otilonium bromide] | 29.0 | 6.9 | 3.13 | 3.13 | 3.13 | 3.13 | 6.25 | able to inhibit A. fumigatus | 3.13 | 3.13 | completely inhibit spore germination | fully germicidal | – | – | – | – | – | – | – | – | –
N=C(N)c1ccc(OCCCCCOc2ccc(C(=N)N)cc2)cc1 [Pentamidine isethionate] | – | – | – | – | – | – | – | – | – | – | – | – | 6.25 | 6.25 | 1.56 | 3.13 | > 100 | 50 | 50 | able to successfully inhibit spore germination | Spore escape from inhibition (words) [7]: none of the ˜10,000 spores showed inherent resistance and escape from inhibition
CO[C@H]1C[C@@H]2CC[C@@H](C)[C@@](O)(O2)C(=O)C(=O)N2CCCC[C@H]2C(=O)O[C@H]([C@H](C)C[C@@H]2CC[C@@H](OC(=O)C(C)(CO)CO)[C@H](OC)C2)CC(=O)[C@H](C)/C=C(\C)[C@@H](O)[C@@H](OC)C(=O)[C@H](C)C[C@H](C)/C=C/C=C/C=C/1C [Temsirolimus] | 59.2 | 21.3 | 6.25 (≈ 6.07 µM) | 6.25 (≈ 6.07 µM) | 6.25 (≈ 6.07 µM) | 6.25 (≈ 6.07 µM) | > 100 | – | 1.56 (≈ 1.51 µM) | 1.56 (≈ 1.51 µM) | partially inhibit germination | Neither temsirolimus nor disulfiram were germicidal | – | – | – | – | – | – | – | – | –
